Test results published in patent US20180338964A1, “3-(PIPERIDIN-4-YL)-ISOXAZOL-3(OH)-ONES FOR TREATMENT OF DERMATOLOGIC DISORDERS” (Emeriti Pharma AB, priority 2014, published 2018).

What was measured:
plasminogen kringle 1 = biological target: T1, plasminogen kringle 1 (Homo sapiens, UniProt P00747); assay: NMR competition assay (1D T1rho) for binding to plasminogen kringle 1, tranexamic acid as reference
T1 construct: Signal intensities from free tranexamic acid are reduced when recombinant kringle 1 protein is added
Experimental: The NMR experiment identifies compounds binding to the lysine binding pocket in a competition assay where tranexamic acid was used as reference compound and 1D T1rho experiments were used for detection. Signal intensities from free tranexamic acid are reduced when recombinant kringle 1 protein is added due to binding to this protein. The NMR signals from tranexamic acid regain intensity when an added compound displaces it from the lysine binding pocket of kringle 1.
The compounds were run one-by-one at a concentration between 15 and 300 μM. The concentration of protein and tranexamic acid were 10 and 100 μM respectively. A test compound resulting in at least 10% increase in tranexamic acid intensity (displacement) was considered binding to kringle 1.

[1] = test system: fibrinolysis in human plasma clot (tPA activation of plasminogen); conditions: citrated platelet poor human plasma, tPA 80 ng/ml, 37° C.; for IC50: read-out: IC50 (clot-lysis time prolonged to twice the vehicle value); for IC90: read-out: IC90 (clot-lysis time prolonged to nine times the vehicle value)
[2] = test system: stratum corneum protease activity; conditions: ˜13% EACA (1 M) cream, rosacea patients; cited from earlier work
[3] = treatment of bleeding disorders; cited from earlier work
[4] = oral TXA; cited from earlier work
melasma = conditions: cited from earlier work
stratum corneum barrier = conditions: topically applied, healthy volunteer, after experimental damage to stratum corneum; cited from earlier work
[5] = test system: stratum corneum barrier function; conditions: topical 3% (˜0.2M) TXA, rosacea patients; cited from earlier work

T1 sequence (P00747 103-181 limits assumed): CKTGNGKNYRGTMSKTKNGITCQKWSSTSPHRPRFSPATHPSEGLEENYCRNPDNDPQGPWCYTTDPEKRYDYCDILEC

Kd (plasminogen kringle 1) | Compound | further results
300 nM | O=c1cc([C@H]2CCN[C@@H](c3cc(F)c(F)cc3F)C2)o[nH]1 [5-[(2R,4S)-2-(2,4,5-trifluorophenyl)piperidin-4-yl]-2,3-dihydro-1,2-oxazol-3-one] | –
200 nM | O=c1cc([C@H]2CCN[C@@H](c3ccc(Cl)cc3Cl)C2)o[nH]1 [5-[(2R,4S)-2-(2,4-dichlorophenyl)piperidin-4-yl]-2,3-dihydro-1,2-oxazol-3-one] | –
200 nM | O=c1cc([C@H]2CCN[C@@H](c3ccc(F)cc3F)C2)o[nH]1 [5-[(2R,4S)-2-(2,4-difluorophenyl)piperidin-4-yl]-2,3-dihydro-1,2-oxazol-3-one] | –
100 nM | O=c1cc([C@H]2CCN[C@@H](c3ccc(Cl)cc3)C2)o[nH]1 [5-[(2R,4S)-2-(4-chlorophenyl)piperidin-4-yl]-2,3-dihydro-1,2-oxazol-3-one] | –
600 nM | O=c1cc([C@H]2CCN[C@@H](c3ccc(F)cc3)C2)o[nH]1 [5-[(2R,4S)-2-(4-fluorophenyl)piperidin-4-yl]-2,3-dihydro-1,2-oxazol-3-one] | –
300 nM | O=c1cc([C@H]2CCN[C@@H](c3ccc(OC(F)(F)F)cc3F)C2)o[nH]1 [5-[(2R,4S)-2-[2-fluoro-4-(trifluoromethoxy)phenyl]piperidin-4-yl]-2,3-dihydro-1,2-oxazol-3-one] | –
300 nM | O=c1cc([C@H]2CCN[C@@H](c3ccc(C(F)(F)F)cc3F)C2)o[nH]1 [5-[(2R,4S)-2-[2-fluoro-4-(trifluoromethyl)phenyl]piperidin-4-yl]-2,3-dihydro-1,2-oxazol-3-one] | –
300 nM | Cc1cc(C(F)(F)F)ccc1[C@H]1C[C@@H](c2cc(=O)[nH]o2)CCN1 [5-[(2R,4S)-2-[2-methyl-4-(trifluoromethyl)phenyl]piperidin-4-yl]-2,3-dihydro-1,2-oxazol-3-one] | –
200 nM | O=c1cc([C@H]2CCN[C@@H](c3ccc(C(F)(F)F)c(F)c3)C2)o[nH]1 [5-[(2R,4S)-2-[3-fluoro-4-(trifluoromethyl)phenyl]piperidin-4-yl]-2,3-dihydro-1,2-oxazol-3-one] | –
100 nM | Cc1cc([C@H]2C[C@@H](c3cc(=O)[nH]o3)CCN2)ccc1C(F)(F)F [5-[(2R,4S)-2-[3-methyl-4-(trifluoromethyl)phenyl]piperidin-4-yl]-2,3-dihydro-1,2-oxazol-3-one] | –
100 nM | O=c1cc([C@H]2CCN[C@@H](Cc3ccc(F)cc3F)C2)o[nH]1 [5-[(2R,4S)-2-[(2,4-difluorophenyl)methyl]piperidin-4-yl]-2,3-dihydro-1,2-oxazol-3-one] | –
100 nM | O=c1cc([C@H]2CCN[C@@H](Cc3ccc(F)c(F)c3)C2)o[nH]1 [5-[(2R,4S)-2-[(3,4-difluorophenyl)methyl]piperidin-4-yl]-2,3-dihydro-1,2-oxazol-3-one] | –

The next lines start with the compound.

Compound | Kd (plasminogen kringle 1) | further results
Cn1nnc([C@H]2C[C@@H](c3cc(=O)[nH]o3)CCN2)n1 [5-[(2R,4S)-2-(2-methyl-2H-1,2,3,4-tetrazol-5-yl)piperidin-4-yl]-2,3-dihydro-1,2-oxazol-3-one] | 200 nM | –
CC(C)(C)c1cccc([C@H]2C[C@@H](c3cc(=O)[nH]o3)CCN2)c1 [5-[(2R,4S)-2-(3-tert-butylphenyl)piperidin-4-yl]-2,3-dihydro-1,2-oxazol-3-one] | 280 nM | –
CS(=O)(=O)c1ccc([C@H]2C[C@@H](c3cc(=O)[nH]o3)CCN2)cc1 [5-[(2R,4S)-2-(4-methanesulfonylphenyl)piperidin-4-yl]-2,3-dihydro-1,2-oxazol-3-one] | 200 nM | –
O=c1cc([C@H]2CCN[C@@H](c3ccc(C(F)(F)F)cc3)C2)o[nH]1 [5-[(2R,4S)-2-[4-(trifluoromethyl)phenyl]piperidin-4-yl]-2,3-dihydro-1,2-oxazol-3-one] | 100 nM | –
O=c1cc([C@H]2CCN[C@@H](c3ccc(C(F)(F)F)nc3)C2)o[nH]1 [5-[(2R,4S)-2-[6-(trifluoromethyl)pyridin-3-yl]piperidin-4-yl]-2,3-dihydro-1,2-oxazol-3-one] | 280 nM | –
O=c1cc([C@H]2CCN[C@@H](Cc3cc(F)c(F)c(F)c3)C2)o[nH]1 [5-[(2R,4S)-2-[(3,4,5-trifluorophenyl)methyl]piperidin-4-yl]-2,3-dihydro-1,2-oxazol-3-one] | 140 nM | –
CC(C)(C)c1cc(C[C@H]2C[C@@H](c3cc(=O)[nH]o3)CCN2)cc(C(C)(C)C)c1 [5-[(2R,4S)-2-[(3,5-di-tert-butylphenyl)methyl]piperidin-4-yl]-2,3-dihydro-1,2-oxazol-3-one] | 1000 nM | –
CS(=O)(=O)c1ccc(C[C@H]2C[C@@H](c3cc(=O)[nH]o3)CCN2)cc1 [5-[(2R,4S)-2-[(4-methanesulfonylphenyl)methyl]piperidin-4-yl]-2,3-dihydro-1,2-oxazol-3-one] | 400 nM | –
CC(C)(C)c1ccc(C[C@H]2C[C@@H](c3cc(=O)[nH]o3)CCN2)cc1 [5-[(2R,4S)-2-[(4-tert-butylphenyl)methyl]piperidin-4-yl]-2,3-dihydro-1,2-oxazol-3-one] | 300 nM | –
O=c1cc([C@H]2CCN[C@@H](COC3CCCCC3)C2)o[nH]1 [5-[(2R,4S)-2-[(cyclohexyloxy)methyl]piperidin-4-yl]-2,3-dihydro-1,2-oxazol-3-one] | 300 nM | –
O=c1cc([C@H]2CCN[C@@H](CN3CCn4c(nnc4C(F)(F)F)C3)C2)o[nH]1 [5-[(2R,4S)-2-{[3-(trifluoromethyl)-5H,6H,7H,8H-[1,2,4]triazolo[4,3-a]pyrazin-7-yl]methyl}piperidin-4-yl]-2,3-dihydro-1,2-oxazol-3-one] | 240 nM | –
O=c1cc([C@H]2CCN[C@@H](Cc3ccc(C(F)(F)F)c(F)c3)C2)o[nH]1 [5-[(2R,4S)-2-{[3-fluoro-4-(trifluoromethyl)phenyl]methyl}piperidin-4-yl]-2,3-dihydro-1,2-oxazol-3-one] | 240 nM | –
O=c1cc([C@H]2CCN[C@@H](CN3CCC[C@H]3C(F)(F)F)C2)o[nH]1 [5-[(2R,4S)-2-{[(2S)-2-(trifluoromethyl)pyrrolidin-1-yl]methyl}piperidin-4-yl]-2,3-dihydro-1,2-oxazol-3-one] | 400 nM | –
CC(C)(C)c1ccc(C[C@@H]2C[C@@H](c3cc(=O)[nH]o3)CCN2)cc1 [5-[(2S,4S)-2-[(4-tert-butylphenyl)methyl]piperidin-4-yl]-2,3-dihydro-1,2-oxazol-3-one] | 100 nM | –
NCCCCCC(=O)O [EACA, 6-aminohexanoic acid] | – | IC50 [1]: 72700 nM; IC90 [1]: 637000 nM; stratum corneum protease activity [2]: reduction in stratum corneum protease activity
NCC1CCC(C(=O)O)CC1 (stereo not shown) [TXA, 4-(aminomethyl)cyclohexane-1-carboxylic acid] | – | IC50 [1]: 6660 nM; IC90 [1]: 55400 nM; therapeutic plasma concentration [3]: 30 to 90 µM; allergic skin reaction, fraction of treated [4]: < 1/100; effect on melasma (melasma; topical 5% (˜0.3M) TXA versus vehicle): no effect; erythema (melasma; topical 5% (˜0.3M) TXA): produced erythema; stratum corneum barrier recovery (stratum corneum barrier): enhance stratum corneum barrier recovery; stratum corneum barrier function [5]: improved stratum corneum barrier function
